Experimental data from patent publication US12156880B2, “Heterocyclic RIP1 kinase inhibitors” (Rigel Pharmaceuticals, Inc., priority 2021, dated 2024).

Key:
[1] = molecular target: T1, RIPK1 (Homo sapiens, UniProt Q13546); test: RIPK1 ADP-Glo biochemical kinase assay; conditions: read-out: RIPK1 ADP-Glo Kinase (IC50)
T1 sequence (Q13546 1-671): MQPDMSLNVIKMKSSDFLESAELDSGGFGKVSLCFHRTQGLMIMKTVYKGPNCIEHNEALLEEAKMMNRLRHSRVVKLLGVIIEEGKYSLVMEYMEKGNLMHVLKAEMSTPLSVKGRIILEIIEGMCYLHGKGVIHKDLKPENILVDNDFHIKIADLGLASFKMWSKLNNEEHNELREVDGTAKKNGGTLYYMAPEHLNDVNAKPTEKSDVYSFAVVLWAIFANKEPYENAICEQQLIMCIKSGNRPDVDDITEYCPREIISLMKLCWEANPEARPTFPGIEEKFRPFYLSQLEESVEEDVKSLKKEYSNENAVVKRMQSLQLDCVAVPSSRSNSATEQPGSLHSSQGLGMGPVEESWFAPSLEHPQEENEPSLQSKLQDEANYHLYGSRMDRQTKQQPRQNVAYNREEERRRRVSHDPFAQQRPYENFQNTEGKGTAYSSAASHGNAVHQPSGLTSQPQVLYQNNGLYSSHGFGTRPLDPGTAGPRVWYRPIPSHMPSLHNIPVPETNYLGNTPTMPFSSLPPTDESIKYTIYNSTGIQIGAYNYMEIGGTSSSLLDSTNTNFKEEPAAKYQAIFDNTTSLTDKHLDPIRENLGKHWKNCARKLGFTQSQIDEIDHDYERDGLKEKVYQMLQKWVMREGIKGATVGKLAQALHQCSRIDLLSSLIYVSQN
How it was run: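 RIPK1 at 31 ng/well in Tris pH 7.4 buffer with MgCl2, BSA, DTT and MnCl2, reacted with compounds (duplicate) for 30 min at 30 °C. ADP formed detected by ADP-Glo: 40 min stop/depletion, then 30 min detection reagent at room temperature; luminescence read.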

[2] = system: L929 cells; test: L929 cell necroptosis assay (TNFa + zVAD, CellTiter-Glo recovery); type: cell-based, murine; conditions: Mus musculus, L929, 18 h, TNFa 2 ng/mL + zVAD-fmk, read-out: L929-CTG-recovery, L929, TNFa + zVAD (IC50)
Description: In this example, U937 and L929 cells were exposed to compounds of the present disclosure and a cell necroptosis assay was conducted to evaluate the compounds' activity against human RIP1 and murine RIP1.
U937 and L929 cells were obtained from the American Type Culture Collection (Manassas, VA, USA). Both cells were maintained in logarithmic growth phase in complete RPMI 1640 media (Sigma, ST Louis, MO, USA) supplemented with 10% fetal bovine serum (Sigma, ST Louis, MO, USA) at 37° C. with 5% CO2. For necroptosis assay, L929 cells were plated for 18 h in 100 μL/well medium at 10K cells/well in Costar 96-well black clear-bottom plates (Fisher Scientific, Hampton, NH, USA); U937 cells were plated on the day of the assay in 50 μL/well medium containing 60 uM zVAD-fmk (Lonza, Basel, Switzerland) at 50K cells/well. Medium from L929 cells were removed from the 96-well plates and replaced with 50 μL/well new medium containing 40 uM zVAD-fmk. Each compound of the present disclosure evaluated in this example was serially diluted in DMSO from 2.5 mM in 4-fold dilutions, and then diluted 1:125 in complete medium. 50 μL/well 2× of the compound was then added to the cells in the plates. The cells were pre-incubated with the compound for 1 hour at 37° C. with 5% CO2 and before addition of 10 μL/well 11×TNFa (Peprotech, Rocky Hill, NJ, USA) to give a final concentration of 2 ng/mL for TNFa. The relative amount of necroptosis cells was determined by luminescent using a Wallac Victor2 Luminometer (PerkinElmer, Waltham, MA, USA) and a CellTiter-Glo® Luminescent Cell Viability Reagent Assay (Promega, Madison, WI, USA) added per manufacturer instructions after 18 hours of TNFa stimulation at 37° C. with 5% CO2. This example establishes that embodiments of the compounds described herein have unexpectedly potent activity against human RIP1 and murine RIP1, which allows their assessment in in vivo mouse models of disease.

[3] = system: U937 cells; test: U937 cell necroptosis assay (TNFa + zVAD, CellTiter-Glo recovery); type: cell-based; conditions: Homo sapiens, U-937, 18 h, TNFa 2 ng/mL + zVAD-fmk, read-out: U937 Zvad TNF CTG Recovery, U937, TNFa + zVAD (IC50)
How it was run: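 Human U937 (50K/well, 60 uM zVAD-fmk medium, plated same day) or murine L929 (10K/well, plated 18 h, then 40 uM zVAD-fmk medium) were grown in RPMI with 10% FBS. Both were pretreated with compound for 1 h at 37 °C before TNFa at 2 ng/mL final. Viability was read by CellTiter-Glo luminescence after 18 h.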

| SMILES | IC50 [1] [nM] | IC50 [2] [nM] | IC50 [3] [nM] |
| --- | --- | --- | --- |
| CN1C(=O)[C@@H](NC(=O)n2cc(Cc3cccc(F)n3)cn2)COc2ccc(C#CC(C)(C)CO)cc21 [I-37, (S)-4-((6-Fluoropyridin-2-yl)methyl)-N-(7-(4-hydroxy-3,3-dimethylbut-1-yn-1-yl)-5-methyl-4-oxo-2,3,4,5-tetrahydrobenzo[b][1,4]oxazepin-3-yl)-1H-pyrazole-1-carboxamide] | 16.2 | 697 | 4 |
| CN1C(=O)[C@@H](NC(=O)n2cc(Cc3cccnc3F)cn2)COc2ccc(Br)cc21 [I-42, (S)—N-(7-Bromo-5-methyl-4-oxo-2,3,4,5-tetrahydrobenzo[b][1,4]oxazepin-3-yl)-4-((2-fluoropyridin-3-yl)methyl)-1H-pyrazole-1-carboxamide] | 18.2 | 28400 | 58.6 |
| CN1C(=O)[C@@H](NC(=O)n2cc(Cc3cccnc3F)cn2)COc2ccc(C#CC(C)(C)O)cc21 [I-43, (S)-4-((2-Fluoropyridin-3-yl)methyl)-N-(7-(3-hydroxy-3-methylbut-1-yn-1-yl)-5-methyl-4-oxo-2,3,4,5-tetrahydrobenzo[b][1,4]oxazepin-3-yl)-1H-pyrazole-1-carboxamide] | 17.7 | 2520 | 17.9 |
| CN1C(=O)[C@@H](NC(=O)n2cc(Cc3cccnc3F)cn2)COc2ccc(C#CC3(O)CCOCC3)cc21 [I-44, (S)-4-((2-Fluoropyridin-3-yl)methyl)-N-(7-((4-hydroxytetrahydro-2H-pyran-4-yl)ethynyl)-5-methyl-4-oxo-2,3,4,5-tetrahydrobenzo[b][1,4]oxazepin-3-yl)-1H-pyrazole-1-carboxamide] | 62.9 | 4120 | 18 |
| CN1C(=O)[C@@H](NC(=O)n2cc(Cc3cccnc3F)cn2)COc2ccc(C#CC3CCOCC3)cc21 [I-45, (S)-4-((2-Fluoropyridin-3-yl)methyl)-N-(5-methyl-4-oxo-7-((tetrahydro-2H-pyran-4-yl)ethynyl)-2,3,4,5-tetrahydrobenzo[b][1,4]oxazepin-3-yl)-1H-pyrazole-1-carboxamide] | 45 | 512 | 5.2 |
| CN1C(=O)[C@@H](NC(=O)n2cc(Cc3cccnc3F)cn2)COc2ccc(C#CC(C)(C)CO)cc21 [I-46, (S)-4-((2-Fluoropyridin-3-yl)methyl)-N-(7-(4-hydroxy-3,3-dimethylbut-1-yn-1-yl)-5-methyl-4-oxo-2,3,4,5-tetrahydrobenzo[b][1,4]oxazepin-3-yl)-1H-pyrazole-1-carboxamide] | 37.5 | 2370 | 9.7 |
| CN1C(=O)[C@@H](NC(=O)n2cc(Cc3cccnc3F)cn2)COc2ccc(C#CC3(O)COC3)cc21 [I-47, (S)-4-((2-Fluoropyridin-3-yl)methyl)-N-(7-((3-hydroxyoxetan-3-yl)ethynyl)-5-methyl-4-oxo-2,3,4,5-tetrahydrobenzo[b][1,4]oxazepin-3-yl)-1H-pyrazole-1-carboxamide] | 17.5 | 2900 | 40.8 |
| CN1C(=O)[C@@H](NC(=O)n2cc(Cc3cccnc3F)cn2)COc2ccc(C#CC3(O)CCC3)cc21 [I-48, (S)-4-((2-Fluoropyridin-3-yl)methyl)-N-(7-((1-hydroxycyclobutyl)ethynyl)-5-methyl-4-oxo-2,3,4,5-tetrahydrobenzo[b][1,4]oxazepin-3-yl)-1H-pyrazole-1-carboxamide] | 646 | 1470 | 24.9 |
| CN1C(=O)[C@@H](NC(=O)n2cc(Cc3ccc(F)nc3F)cn2)COc2ccc(C#CC(C)(C)O)cc21 [I-50, (S)-4-((2,6-Difluoropyridin-3-yl)methyl)-N-(7-(3-hydroxy-3-methylbut-1-yn-1-yl)-5-methyl-4-oxo-2,3,4,5-tetrahydrobenzo[b][1,4]oxazepin-3-yl)-1H-pyrazole-1-carboxamide] | 181 | 17600 | 62.3 |
| CN1C(=O)[C@@H](NC(=O)c2cc(Cc3cccnc3F)ccn2)COc2ccc(C#CC3CCOCC3)cc21 [I-51, (S)-4-((2-fluoropyridin-3-yl)methyl)-N-(5-methyl-4-oxo-7-((tetrahydro-2H-pyran-4-yl)ethynyl)-2,3,4,5-tetrahydrobenzo[b][1,4]oxazepin-3-yl)picolinamide] | 18.3 | 9.6 | 0.4 |
| CN1C(=O)[C@@H](NC(=O)c2cc(Cc3cccnc3F)ccn2)COc2ccc(C#CC3COC3)cc21 [I-52, (S)-4-((2-fluoropyridin-3-yl)methyl)-N-(5-methyl-7-(oxetan-3-ylethynyl)-4-oxo-2,3,4,5-tetrahydrobenzo[b][1,4]oxazepin-3-yl)picolinamide] | 16.5 | 657 | 2.2 |
| CN1C(=O)[C@@H](NC(=O)c2cc(Cc3cccc(F)n3)ccn2)COc2ccc(C#CC3CCOCC3)cc21 [I-53, (S)-4-((6-fluoropyridin-2-yl)methyl)-N-(5-methyl-4-oxo-7-((tetrahydro-2H-pyran-4-yl)ethynyl)-2,3,4,5-tetrahydrobenzo[b][1,4]oxazepin-3-yl)picolinamide] | 35.1 | 114 | 3 |
| CN1C(=O)[C@@H](NC(=O)c2cc(Oc3cccnc3F)ccn2)COc2ccc(C#CC(C)(C)O)cc21 [I-54, (S)-4-((2-fluoropyridin-3-yl)oxy)-N-(7-(3-hydroxy-3-methylbut-1-yn-1-yl)-5-methyl-4-oxo-2,3,4,5-tetrahydrobenzo[b][1,4]oxazepin-3-yl)picolinamide] | 16.8 | 573 | 7.1 |
| CN1C(=O)[C@@H](NC(=O)c2cc(Oc3cccnc3F)ccn2)COc2ccc(C#CC3COC3)cc21 [I-55, (S)-4-((2-fluoropyridin-3-yl)oxy)-N-(5-methyl-7-(oxetan-3-ylethynyl)-4-oxo-2,3,4,5-tetrahydrobenzo[b][1,4]oxazepin-3-yl)picolinamide] | 14.3 | 155 | 1.2 |
| CN1C(=O)[C@@H](NC(=O)c2cc(Oc3cccnc3F)ccn2)COc2ccc(C#CC3(O)COC3)cc21 [I-56, (S)-4-((2-fluoropyridin-3-yl)oxy)-N-(7-((3-hydroxyoxetan-3-yl)ethynyl)-5-methyl-4-oxo-2,3,4,5-tetrahydrobenzo[b][1,4]oxazepin-3-yl)picolinamide] | 10.5 | 275 | 2.9 |
| CN1C(=O)[C@@H](NC(=O)c2cc(Oc3cccnc3)ccn2)COc2ccc(C#CC3(O)COC3)cc21 [I-57, (S)—N-(7-((3-hydroxyoxetan-3-yl)ethynyl)-5-methyl-4-oxo-2,3,4,5-tetrahydrobenzo[b][1,4]oxazepin-3-yl)-4-(pyridin-3-yloxy)picolinamide] | 18.1 | 437 | 1.6 |
| CN1C(=O)[C@@H](NC(=O)c2cc(Oc3cccnc3)ccn2)COc2ccc(C#CC(C)(C)O)cc21 [I-58, (S)—N-(7-(3-hydroxy-3-methylbut-1-yn-1-yl)-5-methyl-4-oxo-2,3,4,5-tetrahydrobenzo[b][1,4]oxazepin-3-yl)-4-(pyridin-3-yloxy)picolinamide] | 20.2 | 1180 | 3.8 |
